Results taken from ChEMBL document CHEMBL3351303, “Discovery of Imigliptin, a Novel Selective DPP-4 Inhibitor for the Treatment of Type 2 Diabetes” (ACS Med Chem Lett, 2014).
Blank lines part the entries; values can stand above or below the compound they belong to.

Tests used:
Dipeptidyl peptidase 8 = Dipeptidyl peptidase 8 (Homo sapiens, UniProt Q6V1X1); assay: Inhibition of human recombinant DPP8 pre-incubated with compound for 15 mins before substrate addition by luminescence assay
Dipeptidyl peptidase 9 = Dipeptidyl peptidase 9 (Homo sapiens, UniProt Q86TI2); assay: Inhibition of human recombinant DPP9 pre-incubated with compound for 15 mins before substrate addition by luminescence assay
Sequence of Dipeptidyl peptidase 9 (Q86TI2 whole entry): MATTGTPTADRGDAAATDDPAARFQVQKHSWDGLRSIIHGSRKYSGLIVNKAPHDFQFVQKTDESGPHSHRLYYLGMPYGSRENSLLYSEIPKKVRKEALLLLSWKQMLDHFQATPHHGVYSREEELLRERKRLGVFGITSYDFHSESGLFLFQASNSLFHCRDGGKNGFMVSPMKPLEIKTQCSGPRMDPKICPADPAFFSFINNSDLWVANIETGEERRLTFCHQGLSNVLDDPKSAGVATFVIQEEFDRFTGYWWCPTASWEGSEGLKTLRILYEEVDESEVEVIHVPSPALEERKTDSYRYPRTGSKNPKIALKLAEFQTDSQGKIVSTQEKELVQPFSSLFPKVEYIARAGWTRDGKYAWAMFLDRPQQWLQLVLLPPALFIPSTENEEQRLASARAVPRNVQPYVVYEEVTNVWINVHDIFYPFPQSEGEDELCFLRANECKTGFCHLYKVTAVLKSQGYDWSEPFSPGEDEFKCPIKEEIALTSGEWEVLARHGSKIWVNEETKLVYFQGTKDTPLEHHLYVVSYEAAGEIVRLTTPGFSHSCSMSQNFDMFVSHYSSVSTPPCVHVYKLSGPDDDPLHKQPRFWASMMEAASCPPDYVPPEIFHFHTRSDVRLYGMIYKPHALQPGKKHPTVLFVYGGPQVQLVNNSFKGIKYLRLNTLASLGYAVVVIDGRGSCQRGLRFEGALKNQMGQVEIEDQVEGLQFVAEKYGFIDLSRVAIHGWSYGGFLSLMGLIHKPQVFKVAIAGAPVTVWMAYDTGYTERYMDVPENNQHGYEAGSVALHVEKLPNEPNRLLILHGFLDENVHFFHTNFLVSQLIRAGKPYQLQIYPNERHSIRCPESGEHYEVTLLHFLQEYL

[1] = Clearance in rat at 5 mg/kg, iv; assay type: ADME, organism-based; set-up: dose 5 mg/kg, route intravenous; conditions: in vivo
[2] = Volume of distribution at steady state in rat at 5 mg/kg, iv; assay type: ADME, organism-based; set-up: dose 5 mg/kg, route intravenous; conditions: in vivo, read-out: Vdss
[3] = Half life in rat at 5 mg/kg, iv; assay type: ADME, organism-based; set-up: dose 5 mg/kg, route intravenous; conditions: in vivo
[4] = Cmax in rat at 10 mg/kg, po; assay type: ADME, organism-based; set-up: dose 10 mg/kg, route oral; conditions: in vivo
[5] = AUClast in rat at 10 mg/kg, po; assay type: ADME, organism-based; set-up: time 0 - last, dose 10 mg/kg, route oral; conditions: plasma
[6] = Half life in rat at 10 mg/kg, po; assay type: ADME, organism-based; set-up: dose 10 mg/kg, route oral; conditions: in vivo
[7] = Oral bioavailability in rat at 10 mg/kg; assay type: ADME, organism-based; conditions: in vivo
Mus musculus [8] = assay: Inhibition of DPP4 activity in C57BL/6 mouse at 3 mg/kg, po administered as single dose 30 mins before orally glucose challenge and measured 20 mins post oral glucose challenge by luminescence assay; conditions: C57BL/6, po, read-out: INH
[9] = Plasma concentration in C57BL/6 mouse at 3 mg/kg, po administered as single dose 30 mins before orally glucose challenge and measured 20 mins post oral glucose challenge; assay type: ADME, organism-based; set-up: dose 3 mg/kg, route oral
Mus musculus [10] = species on record: Mus musculus; assay: animal or person; conditions: C57BL/6, Plasma, po, read-out: INH

Sequence of Dipeptidyl peptidase 8 (Q6V1X1 whole entry): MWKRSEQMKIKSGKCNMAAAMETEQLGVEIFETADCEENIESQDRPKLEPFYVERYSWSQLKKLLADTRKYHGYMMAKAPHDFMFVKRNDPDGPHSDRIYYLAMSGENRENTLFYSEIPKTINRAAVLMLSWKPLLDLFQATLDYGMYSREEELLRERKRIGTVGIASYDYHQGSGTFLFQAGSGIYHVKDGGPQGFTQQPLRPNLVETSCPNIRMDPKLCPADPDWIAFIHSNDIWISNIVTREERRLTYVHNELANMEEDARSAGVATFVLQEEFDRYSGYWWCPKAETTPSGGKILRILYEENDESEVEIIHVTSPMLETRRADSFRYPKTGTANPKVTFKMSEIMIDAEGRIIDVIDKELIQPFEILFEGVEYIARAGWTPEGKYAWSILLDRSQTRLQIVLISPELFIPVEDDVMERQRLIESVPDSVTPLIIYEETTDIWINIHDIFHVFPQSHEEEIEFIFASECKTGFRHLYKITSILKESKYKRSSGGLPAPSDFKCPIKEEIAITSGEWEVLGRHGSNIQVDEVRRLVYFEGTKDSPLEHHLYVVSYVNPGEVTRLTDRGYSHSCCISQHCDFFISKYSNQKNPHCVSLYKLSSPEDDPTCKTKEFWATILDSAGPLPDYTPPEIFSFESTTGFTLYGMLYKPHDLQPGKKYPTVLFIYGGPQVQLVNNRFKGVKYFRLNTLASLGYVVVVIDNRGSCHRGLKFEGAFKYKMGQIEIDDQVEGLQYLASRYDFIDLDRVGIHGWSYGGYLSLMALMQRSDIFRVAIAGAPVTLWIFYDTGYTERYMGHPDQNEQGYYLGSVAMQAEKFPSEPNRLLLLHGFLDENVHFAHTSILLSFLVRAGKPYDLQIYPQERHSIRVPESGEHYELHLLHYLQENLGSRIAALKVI

IC50 (Dipeptidyl peptidase 8): > 100 µM | IC50 (Dipeptidyl peptidase 9): > 100 µM
SMILES: Cn1c(=O)n(Cc2ccccc2C#N)c2c(N3CCC[C@@H](N)C3)cc(N3CCCC3)nc21

clearance [1]: 65 mL/min/kg | Vd [2]: 5.42 L/kg | half-life [3]: 2.4 h | Cmax [4]: 175 ng/mL | AUC(0-t) [5]: 880 ng·h/mL | half-life [6]: 2.8 h | bioavailability [7]: 35%
SMILES: Cn1c(=O)n(Cc2ccccc2C#N)c2c(N3CCC[C@@H](N)C3)ccnc21

IC50 (Dipeptidyl peptidase 8): > 100 µM | IC50 (Dipeptidyl peptidase 9): > 100 µM
SMILES: CC(=O)N[C@@H]1CCCN(c2ccnc3c2n(Cc2ccccc2C#N)c(=O)n3C)C1

IC50 (Dipeptidyl peptidase 8): > 100 µM | IC50 (Dipeptidyl peptidase 9): > 100 µM
SMILES: CC1(C)C(=O)N(Cc2ccccc2C#N)c2c(N3CCC[C@@H](N)C3)ccnc21

SMILES: N[C@@H](CC(=O)N1CCn2c(nnc2C(F)(F)F)C1)Cc1cc(F)c(F)cc1F [SITAGLIPTIN]
inhibition in vivo at 3 mg/kg (Mus musculus [8]): 59.5% | concentration at 20 min [9]: 179 ng/mL | inhibition in vivo at 3 mg/kg (Mus musculus [10]): 59%

IC50 (Dipeptidyl peptidase 8): > 100 µM | IC50 (Dipeptidyl peptidase 9): > 100 µM
SMILES: Cn1c(=O)n(Cc2ccc3ccccc3c2C#N)c2c(N3CCC[C@@H](N)C3)ccnc21
